From patent US20230085307A1, “PYRIDAZINONE COMPOUND AND HERBICIDE” (NISSAN CHEMICAL CORPORATION, priority 2019, published 2023)

Columns and labels:
redroot pigweed [1] = assay: Test Example 5: herbicidal effect by foliage application, plastic box (Table 20, symbol N); assay type: in vivo, redroot pigweed (Amaranthus retroflexus); conditions: foliage application, 320 g/ha, evaluated three weeks after application
Summary of the method: (§1)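 Plants sown in sterilized diluvial soil and grown 14 days in a greenhouse at 25° C to 30° C, then sprayed on the foliage with the compound's emulsion diluted in water to a predetermined herbicide amount. Injury to weeds and crops scored three weeks after application on a visual rating scale.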

wild oat [2] = assay: Test Example 4: herbicidal effect by soil treatment (Table 19, symbol I); assay type: in vivo, wild oat (Avena fatua); conditions: 320 g/ha
Summary of the method: (§2)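 Seeds were sown in sterilized diluvial soil and covered with about 1.5 cm of soil. An emulsion formulation diluted with water to a predetermined herbicide amount was sprayed evenly onto the soil surface. Plants grew in a greenhouse at 25° C. to 30° C., and the effect was scored three weeks after application using criteria from an earlier test.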

lambsquarters [3] = assay: Test Example 4: herbicidal effect by soil treatment (Table 19, symbol O); assay type: in vivo, lambsquarters (Chenopodium album); conditions: 320 g/ha
Summary of the method: as §2

chickweed [4] = assay: Test Example 4: herbicidal effect by soil treatment (Table 19, symbol P); assay type: in vivo, common chickweed (Stellaria media); conditions: 320 g/ha
Summary of the method: as §2

windgrass [5] = assay: Test Example 4: herbicidal effect by soil treatment (Table 19, symbol L); assay type: in vivo, windgrass (Apera spica-venti); conditions: 320 g/ha
Summary of the method: as §2

barnyard grass [6] = assay: Test Example 4: herbicidal effect by soil treatment (Table 19, symbol H); assay type: in vivo, barnyard grass (Echinochloa crus-galli); conditions: 320 g/ha
Summary of the method: as §2

late watergrass = assay: Test Example 2: herbicidal activity, application during weed generation under submerged conditions (Table 17, symbol A); assay type: in vivo, late watergrass (Echinochloa oryzicola); conditions: AAH 320 g/ha; application during weed generation, submerged conditions
Summary of the method: (§3)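 Alluvial soil in Wagner pots was flooded to 4 cm depth and sown with the three weeds together; pots were kept in a greenhouse at 25° C. to 30° C. At the one to two leaf stage, an emulsion formulation diluted in water to a set rate went onto the water surface; scored three weeks later.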

barnyard grass [7] = assay: Test Example 3: herbicidal effect by foliage application, Wagner pot (Table 18, symbol H); assay type: in vivo, barnyard grass (Echinochloa crus-galli); conditions: 320 g/ha
Summary of the method: (§4)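 Plants were sown in alluvial soil held under 0.1–0.5 cm standing water and grown 14 days in a greenhouse at 25–30 °C. An emulsifiable formulation, water-diluted to the set dose, was then sprayed onto the foliage, and effects were scored three weeks later using previously defined criteria.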

chickweed [8] = assay: Test Example 5: herbicidal effect by foliage application, plastic box (Table 20, symbol P); assay type: in vivo, common chickweed (Stellaria media); conditions: foliage application, 320 g/ha, evaluated three weeks after application
Summary of the method: as §1

lambsquarters [9] = assay: Test Example 5: herbicidal effect by foliage application, plastic box (Table 20, symbol O); assay type: in vivo, lambsquarters (Chenopodium album); conditions: foliage application, 320 g/ha, evaluated three weeks after application
Summary of the method: as §1

oval-leafed pondweed = assay: Test Example 2: herbicidal activity, application during weed generation under submerged conditions (Table 17, symbol C); assay type: in vivo, oval-leafed pondweed (Monochoria vaginalis); conditions: AAH 320 g/ha; application during weed generation, submerged conditions
Summary of the method: as §3

velvetleaf [10] = assay: Test Example 4: herbicidal effect by soil treatment (Table 19, symbol M); assay type: in vivo, velvetleaf (Abutilon theophrasti); conditions: 320 g/ha
Summary of the method: as §2

wild oat [11] = assay: Test Example 5: herbicidal effect by foliage application, plastic box (Table 20, symbol I); assay type: in vivo, wild oat (Avena fatua); conditions: foliage application, 320 g/ha, evaluated three weeks after application
Summary of the method: as §1

barnyard grass [12] = assay: Test Example 5: herbicidal effect by foliage application, plastic box (Table 20, symbol H); assay type: in vivo, barnyard grass (Echinochloa crus-galli); conditions: foliage application, 320 g/ha, evaluated three weeks after application
Summary of the method: as §1

persian speedwell [13] = assay: Test Example 5: herbicidal effect by foliage application, plastic box (Table 20, symbol R); assay type: in vivo, Persian speedwell (Veronica persica); conditions: foliage application, 320 g/ha, evaluated three weeks after application
Summary of the method: as §1

persian speedwell [14] = assay: Test Example 4: herbicidal effect by soil treatment (Table 19, symbol R); assay type: in vivo, Persian speedwell (Veronica persica); conditions: 320 g/ha
Summary of the method: as §2

green foxtail [15] = assay: Test Example 5: herbicidal effect by foliage application, plastic box (Table 20, symbol G); assay type: in vivo, green foxtail (Setaria viridis); conditions: foliage application, 320 g/ha, evaluated three weeks after application
Summary of the method: as §1

velvetleaf [16] = assay: Test Example 5: herbicidal effect by foliage application, plastic box (Table 20, symbol M); assay type: in vivo, velvetleaf (Abutilon theophrasti); conditions: foliage application, 320 g/ha, evaluated three weeks after application
Summary of the method: as §1

southern crabgrass [17] = assay: Test Example 4: herbicidal effect by soil treatment (Table 19, symbol F); assay type: in vivo, southern crabgrass (Digitaria ciliaris); conditions: 320 g/ha
Summary of the method: as §2

windgrass [18] = assay: Test Example 5: herbicidal effect by foliage application, plastic box (Table 20, symbol L); assay type: in vivo, windgrass (Apera spica-venti); conditions: foliage application, 320 g/ha, evaluated three weeks after application
Summary of the method: as §1

redroot pigweed [19] = assay: Test Example 4: herbicidal effect by soil treatment (Table 19, symbol N); assay type: in vivo, redroot pigweed (Amaranthus retroflexus); conditions: 320 g/ha
Summary of the method: as §2

Japanese bulrush = assay: Test Example 2: herbicidal activity, application during weed generation under submerged conditions (Table 17, symbol B); assay type: in vivo, Japanese bulrush (Schoenoplectus juncoides); conditions: AAH 320 g/ha; application during weed generation, submerged conditions
Summary of the method: as §3

southern crabgrass [20] = assay: Test Example 5: herbicidal effect by foliage application, plastic box (Table 20, symbol F); assay type: in vivo, southern crabgrass (Digitaria ciliaris); conditions: foliage application, 320 g/ha, evaluated three weeks after application
Summary of the method: as §1

green foxtail [21] = assay: Test Example 4: herbicidal effect by soil treatment (Table 19, symbol G); assay type: in vivo, green foxtail (Setaria viridis); conditions: 320 g/ha
Summary of the method: as §2

blackgrass [22] = assay: Test Example 5: herbicidal effect by foliage application, plastic box (Table 20, symbol J); assay type: in vivo, blackgrass (Alopecurus myosuroides); conditions: foliage application, 320 g/ha, evaluated three weeks after application
Summary of the method: as §1

rice flat sedge = assay: Test Example 3: herbicidal effect by foliage application, Wagner pot (Table 18, symbol E); assay type: in vivo, rice flat sedge (Cyperus iria); conditions: 320 g/ha
Summary of the method: as §4

blackgrass [23] = assay: Test Example 4: herbicidal effect by soil treatment (Table 19, symbol J); assay type: in vivo, blackgrass (Alopecurus myosuroides); conditions: 320 g/ha
Summary of the method: as §2

Chinese sprangletop = assay: Test Example 3: herbicidal effect by foliage application, Wagner pot (Table 18, symbol D); assay type: in vivo, chinese sprangletop (Leptochloa chinensis); conditions: 320 g/ha
Summary of the method: as §4

Italian ryegrass [24] = assay: Test Example 5: herbicidal effect by foliage application, plastic box (Table 20, symbol K); assay type: in vivo, Italian ryegrass (Lolium multiflorum); conditions: foliage application, 320 g/ha, evaluated three weeks after application
Summary of the method: as §1

Italian ryegrass [25] = assay: Test Example 4: herbicidal effect by soil treatment (Table 19, symbol K); assay type: in vivo, Italian ryegrass (Lolium multiflorum); conditions: 320 g/ha
Summary of the method: as §2

CC(=O)COc1ccc(-c2sc3ccc(F)cc3c2-c2c(O)c(C)nn(C)c2=O)cc1 [2-068]
herbicidal effect on N: redroot pigweed (redroot pigweed [1]): 5 (Herbicidal rate of 90% or more (almost completely withered)) | herbicidal effect rating, I: wild oat (wild oat [2]): 0 (Herbicidal rate of 5% or less (almost no effect)) | herbicidal effect rating, O: lambsquarters (lambsquarters [3]): 4 (Herbicidal rate of 70% or more and less than 90%) | herbicidal effect rating, P: chickweed (chickweed [4]): 0 (Herbicidal rate of 5% or less (almost no effect)) | herbicidal effect rating, L: windgrass (windgrass [5]): 0 (Herbicidal rate of 5% or less (almost no effect)) | herbicidal effect rating, H: barnyard grass (barnyard grass [6]): 3 (Herbicidal rate of 40% or more and less than 70%) | herbicidal effect rating, A: late watergrass (late watergrass): 2 (Herbicidal rate of 20% or more and less than 40%) | herbicidal effect on H (barnyard grass), rating 0-5 (barnyard grass [7]): 5 (Herbicidal rate of 90% or more (almost completely withered)) | herbicidal effect on P: chickweed (chickweed [8]): 5 (Herbicidal rate of 90% or more (almost completely withered)) | herbicidal effect on O: lambsquarters (lambsquarters [9]): 5 (Herbicidal rate of 90% or more (almost completely withered)) | herbicidal effect rating, C: oval-leafed pondweed (oval-leafed pondweed): 3 (Herbicidal rate of 40% or more and less than 70%) | herbicidal effect rating, M: velvetleaf (velvetleaf [10]): 5 (Herbicidal rate of 90% or more (almost completely withered)) | herbicidal effect on I: wild oat (wild oat [11]): 4 (Herbicidal rate of 70% or more and less than 90%) | herbicidal effect on H: barnyard grass (barnyard grass [12]): 5 (Herbicidal rate of 90% or more (almost completely withered)) | herbicidal effect on R: persian speedwell (persian speedwell [13]): 5 (Herbicidal rate of 90% or more (almost completely withered)) | herbicidal effect rating, R: persian speedwell (persian speedwell [14]): 4 (Herbicidal rate of 70% or more and less than 90%) | herbicidal effect on G: green foxtail (green foxtail [15]): 5 (Herbicidal rate of 90% or more (almost completely withered)) | herbicidal effect on M: velvetleaf (velvetleaf [16]): 5 (Herbicidal rate of 90% or more (almost completely withered)) | herbicidal effect rating, F: southern crabgrass (southern crabgrass [17]): 1 (Herbicidal rate of 5% or more and less than 20%) | herbicidal effect on L: windgrass (windgrass [18]): 5 (Herbicidal rate of 90% or more (almost completely withered)) | herbicidal effect rating, N: redroot pigweed (redroot pigweed [19]): 5 (Herbicidal rate of 90% or more (almost completely withered)) | herbicidal effect rating, B: Japanese bulrush (Japanese bulrush): 3 (Herbicidal rate of 40% or more and less than 70%) | herbicidal effect on F: southern crabgrass (southern crabgrass [20]): 5 (Herbicidal rate of 90% or more (almost completely withered)) | herbicidal effect rating, G: green foxtail (green foxtail [21]): 4 (Herbicidal rate of 70% or more and less than 90%) | herbicidal effect on J: blackgrass (blackgrass [22]): 4 (Herbicidal rate of 70% or more and less than 90%) | herbicidal effect on E (rice flat sedge), rating 0-5 (rice flat sedge): 5 (Herbicidal rate of 90% or more (almost completely withered)) | herbicidal effect rating, J: blackgrass (blackgrass [23]): 0 (Herbicidal rate of 5% or less (almost no effect)) | herbicidal effect on D (Chinese sprangletop), rating 0-5 (Chinese sprangletop): 4 (Herbicidal rate of 70% or more and less than 90%) | herbicidal effect on K: Italian ryegrass (Italian ryegrass [24]): 3 (Herbicidal rate of 40% or more and less than 70%) | herbicidal effect rating, K: Italian ryegrass (Italian ryegrass [25]): 0 (Herbicidal rate of 5% or less (almost no effect))
